Results published in patent publication US20260250262A1, “NEW COMPOUND AND PHARMACEUTICAL COMPOSITION COMPRISING SAME” (SAMJIN PHARMACEUTICAL CO., LTD., priority 2023, published 2026).

Experiments:
[1] = molecular target: T1, Recombinant NAMPT protein (Homo sapiens, UniProt P43490); assay: NAMPT enzyme inhibition assay (BPS Bioscience NAMPT Inhibitor Screening Assay Kit); format: biochemical; conditions: 30 min pre-incubation, 2 h at 30° C., fluorescence
T1 construct: purchased BPS bioscience #7176-1
T1 sequence (P43490 whole entry): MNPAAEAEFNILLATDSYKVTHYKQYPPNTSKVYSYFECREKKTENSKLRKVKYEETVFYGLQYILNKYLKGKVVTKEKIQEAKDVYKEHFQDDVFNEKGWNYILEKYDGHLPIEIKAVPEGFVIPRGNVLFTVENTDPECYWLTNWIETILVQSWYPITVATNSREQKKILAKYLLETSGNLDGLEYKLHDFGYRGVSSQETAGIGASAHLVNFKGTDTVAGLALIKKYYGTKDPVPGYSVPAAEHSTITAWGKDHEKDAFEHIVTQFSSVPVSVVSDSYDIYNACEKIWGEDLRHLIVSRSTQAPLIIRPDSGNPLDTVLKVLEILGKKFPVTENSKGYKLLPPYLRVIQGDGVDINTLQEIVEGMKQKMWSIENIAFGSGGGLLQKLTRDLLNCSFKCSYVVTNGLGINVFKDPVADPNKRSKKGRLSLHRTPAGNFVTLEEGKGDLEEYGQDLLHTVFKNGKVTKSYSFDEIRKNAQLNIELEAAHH
Method: Recombinant NAMPT protein was added to each well of a black 96-well plate, and dilution buffer was added to a blank well instead of NAMPT protein. A 5× concentrated compound solution was added and pre-incubated at room temperature (approximately 22° C.) for 30 minutes before the start of the reaction so that the compound and protein might bind before the enzyme reaction. At this time, the concentration of NAMPT protein was adjusted and used according to the enzyme activity of each protein lot within the final concentration range of 4-10 ng/μl, and the test compound was serially diluted at a ratio of 1:3 from 1000 nM to 1 nM, and experiments were conducted with n=2 for about seven concentrations. […] The NAMPT enzyme activity (%) was calculated by subtracting the measurement value of the blank well without NAMPT protein from the measurement value of all wells, and then taking the measurement value of the control well without the compound as 100%.

[2] = system: HCT-116 (colorectal cancer); assay: Tumor cytotoxicity assay (MTT), HCT-116; format: cell-based; conditions: Homo sapiens, HCT-116, 72 hours
Method: (§1) First, the compounds were prepared in 100% dimethyl sulfoxide (DMSO) at concentrations of 0.02 μM to 200 μM, and then diluted in the culture medium so that the final concentration of DMSO might reach 0.5%, and treated with the drugs. The final concentration range of the compounds was 0.1 nM to 1000 nM. After that, they were further incubated for 72 hours under conditions of 37° C. and CO2 5%. […] The cell viability (%) was relatively determined by subtracting the reference 650 nm optical density (O.D.) from the 570 nm O.D., and the 0.5% DMSO-treated control was set as 100% as the standard.

NCI-N87 (gastric cancer) = assay: Tumor cytotoxicity assay (MTT), NCI-N87; format: cell-based; conditions: Homo sapiens, NCI-N87, 72 hours
Method: as §1

IC50 [1] [nM] | SMILES | CC50 [2] [nM] | CC50 (NCI-N87 (gastric cancer)) [nM]
< 500 | O=C(NCCc1cccnc1)Nc1ccc(-c2ccc(C(=O)N3CCC(F)(F)CC3)cc2)c(C#Cc2ccc(F)cc2)c1 [Compound 2, 1-(4′-(4,4-difluoropiperidine-1-carbonyl)-2-((4-fluorophenyl)ethynyl)-[1,1′-biphenyl]-4-yl)-3-(2-(pyridin-3-yl)ethyl)urea] |  | 
500 to 1000 | O=C(NCCn1ccnc1)Nc1ccc(-c2ccncc2)c(C#Cc2ccc(F)cc2)c1 [Compound 3, 1-(2-(1H-imidazol-1-yl)ethyl)-3-(3-((4-fluorophenyl)ethynyl)-4-(pyridin-4-yl)phenyl)urea] |  | 
> 1000 | O=C(NCCc1cccc(O)c1)Nc1ccc(-c2ccncc2)c(C#Cc2ccc(F)cc2)c1 [Compound 5, 1-(3-((4-fluorophenyl)ethynyl)-4-(pyridin-4-yl)phenyl)-3-(3-hydroxyphenethyl)urea] |  | 
< 500 | O=C(NCc1cc2cnccc2[nH]1)Nc1ccc(-c2ccncc2)c(C#Cc2ccc(F)cc2)c1 [Compound 6, 1-((1H-pyrrolo[3,2-c]pyridin-2-yl)methyl)-3-(3-((4-fluorophenyl)ethynyl)-4-(pyridin-4-yl)phenyl)urea] | 30 to 100 | 
< 500 | O=C(NCCc1cccnc1)Nc1ccc(-c2ccncc2)c(C#Cc2ccc(C(=O)NCCN3CCCCC3)cc2)c1 [Compound 7, N-(2-(piperidin-1-yl)ethyl)-4-((5-(3-(2-(pyridin-3-yl)ethyl)ureido)-2-(pyridin-4-yl)phenyl)ethynyl)benzamide] | < 30 | 
> 1000 | O=C(NCCn1ccnc1[N+](=O)[O-])Nc1ccc(-c2ccncc2)c(C#Cc2ccc(F)cc2)c1 [Compound 8, 1-(3-((4-fluorophenyl)ethynyl)-4-(pyridin-4-yl)phenyl)-3-(2-(2-nitro-1H-imidazol-1-yl)ethyl)urea] |  | 
500 to 1000 | O=C(NCCc1cccnc1)Nc1ccc(-c2cccc(N3CCOCC3)c2)c(C#Cc2ccc(F)cc2)c1 [Compound 9, 1-(2-((4-fluorophenyl)ethynyl)-3′-morpholino-[1,1′-biphenyl]-4-yl)-3-(2-(pyridin-3-yl)ethyl)urea] |  | 
> 1000 | Nc1ccc(CCNC(=O)Nc2ccc(-c3ccncc3)c(C#Cc3ccc(F)cc3)c2)cn1 [Compound 10] |  | 
> 1000 | O=C(NCCc1ccc2ocnc2c1)Nc1ccc(-c2ccncc2)c(C#Cc2ccc(F)cc2)c1 [Compound 11] |  | 
< 500 | O=C(NCCc1cccnc1)Nc1ccc(-c2ccncc2)c(C#Cc2ccc(C(=O)NCCN3CCC4(CCNC4)CC3)cc2)c1 [Compound 35] | 30 to 100 | 30 to 100
< 500 | NC1CCCN(CCNC(=O)c2ccc(C#Cc3cc(NC(=O)NCCc4cccnc4)ccc3-c3ccncc3)cc2)C1 (stereo not drawn) [Compound 40] | 30 to 100 | 30 to 100
> 1000 | NC1CCN(C(=O)c2cccc(-c3ccc(NC(=O)NCCc4cccnc4)cc3C#Cc3ccc(C(=O)NCCN4CCCCC4)cc3)c2)C1 (stereo not drawn) [Compound 43] |  | 
< 500 | Nc1cccc(C(=O)N2CCN(c3ccc(NC(=O)NCCc4cccnc4)cc3C#Cc3ccc(F)cc3)CC2)c1 [Compound 52] |  | 
< 500 | O=C(NCCc1cccnc1)Nc1ccc(-c2ccc3cnccc3c2)c(C#Cc2ccc(F)cc2)c1 [Compound 57] |  | 
< 500 | NC1CCN(C(=O)c2ccc(C#Cc3cc(NC(=O)NCCc4cccnc4)ccc3-c3ccncc3)cc2)CC1 [Compound 65, 1-(3-((4-(4-aminopiperidin-1-carbonyl)phenyl)ethynyl)-4-(pyridin-4-yl)phenyl)-3-(2-(pyridin-3-yl)ethyl)urea] | 30 to 100 | 
< 500 | O=C(NCCc1cccnc1)Nc1ccc(-c2ccncc2)c(C#Cc2ccc(C(=O)NC3CCNCC3)cc2)c1 [Compound 66, N-(piperidin-4-yl)-4-((5-(3-(2-(pyridin-3-yl)ethyl)ureido)-2-(pyridin-4-yl)phenyl)ethynyl)benzamide] | 30 to 100 | < 30

IC50 [1] [nM] | SMILES | CC50 [2] [nM] | CC50 (NCI-N87 (gastric cancer)) [nM]
< 500 | Cn1ccc(CS(=O)(=O)c2ccc(NC(=O)NCCc3cccnc3)cc2C#Cc2ccc(F)cc2)n1 [Compound 69] |  | 
< 500 | O=C(NCCc1cccnc1)Nc1ccc(CC(=O)N2CCCCC2)c(C#Cc2ccc(F)cc2)c1 [Compound 74] |  | < 30
< 500 | CC(C(=O)NC1CCCCC1)c1ccc(NC(=O)NCCc2cccnc2)cc1C#Cc1ccc(C(=O)NCCN2CCCCC2)cc1 (stereo not drawn) [Compound 89] | 30 to 100 | 
< 500 | O=C(NCCc1cccnc1)Nc1ccc(C(=O)Nc2ccccc2)c(C#Cc2ccc(C(=O)NCCN3CCCCC3)cc2)c1 [Compound 95] |  | 
< 500 | O=C(NCCCc1cn[nH]c1)Nc1ccc(-c2ccncc2)c(C#Cc2ccc(F)cc2)c1 [Compound 110] |  | 
> 1000 | O=C(NCCc1cccnc1)Nc1ccc(N2CCNCC2)c(C#Cc2ccc(F)cc2)c1 [Compound 118] |  | 
< 500 | CCC(=O)Nc1ccc(NC(=O)NCCc2cccnc2)cc1C#Cc1ccc(F)cc1 [Compound 122] |  | 
< 500 | O=C(NCCc1cccnc1)Nc1ccc(NC(=O)c2ccc(F)cc2)c(C#Cc2ccc(F)cc2)c1 [Compound 124] |  | 
< 500 | CC(=O)Nc1ccc(C#Cc2cc(NC(=O)NCCc3cccnc3)ccc2-c2ccncc2)cc1 [Compound 126, N-(4-((5-(3-(2-(pyridin-3-yl)ethyl)ureido)-2-(pyridin-4-yl)phenyl)ethynyl)phenyl)acetamide] |  | < 30
< 500 | Nc1cccc(C#Cc2cc(NC(=O)NCCc3cccnc3)ccc2-c2ccncc2)c1 [Compound 139] |  | 
< 500 | Nc1cccc(C(=O)Nc2ccc(NC(=O)NCCc3cccnc3)cc2C#Cc2ccc(F)cc2)c1 [Compound 177] |  | 
> 1000 | O=C(NCCc1ccc([N+](=O)[O-])nc1)Nc1ccc(-c2ccncc2)c(C#Cc2ccc(F)cc2)c1 [Compound 182] |  | 
500 to 1000 | NC1CCCN(c2ccc(NC(=O)NCCc3cccnc3)cc2C#Cc2ccc(C(=O)NCCN3CCCCC3)cc2)C1 (stereo not drawn) [Compound 184] |  | 
500 to 1000 | O=C(NCc1ccn2ccnc2c1)Nc1ccc(-c2ccc(N3CCNCC3)cc2)c(C#Cc2ccc(F)cc2)c1 [Compound 185] |  | 
< 500 | Cc1nc2cc(-c3ccc(NC(=O)NCc4ccn5ccnc5c4)cc3C#Cc3ccc(F)cc3)ccc2c(=O)n1CCN [Compound 188] | < 30 | < 30
